Laboratory results from patent US4254111A, “Sterolin products” (Roecar Holdings (Netherlands Antilles) NV, priority 1978, dated 1981).
In brackets after ≈: the same amount, converted by molar mass.

How the values were obtained:
[1] = test system: rat paw-oedema / inflammation (Brewer's Yeast); assay: Anti-inflammatory effect, Brewer's Yeast rat paw oedema, intraperitoneal administration; assay type: in vivo, male Sprague-Dawley rats
Protocol: (§1) Ten animals were killed 5 hours after the challenge in order to determine the effect of the test substance on the accute inflammatory process. The remaining members of the group were sacrificed after 24 hours and used to assess the effect of the test compound on the secondary, residual inflammatory action of yeast. The average amount of oedema and swelling produced in the right foot by yeast was obtained by subtracting the weight of the foot from the weight obtained of the control (saline) side.
Groups of 20 male Sprague-Dawley rats, weighing 250 (±10 g) were acclimatized to the test environment. The test compound was made up in physiological saline at concentrations allowing the selected dose to be administered intraperitoneally at the rate of 0.1 ml/100 g body weight.
The test agent was administered 1.0 hour before the challenge with Brewer's Yeast. Otherwise the test procedure described under (a) was followed.

[2] = Acute toxicity after a single oral or parenteral dose; assay type: in vivo, male Sprague-Dawley rats; details: intraperitoneal, after 7 days
Protocol: (§2) The test substance was suspended in a 1% m/v Tylose® solution made up with distilled water. The selected test doses of the compounds were administered by force feeding at the rate of 1.0 ml/100 g body weight 24.0 hrs and 1.0 hour before the intra-plantar administration of the phlogegenic agent. Brewer's Yeast served as the inflammation-inducing substance and was injected at the rate of 0.1 ml of a 2% suspension made up in sterile saline into the right hind paw. (The left hind paw was injected with 0.1 ml saline only and served as the control foot.)
Male rats of Sprague-Dawley strain and with a weight of 250-350 g were injected intraperitoneally with 0.1-0.5 ml/100 g body weight of an aqueous solution or suspension. Oral administration was carried out as described under (a). Examination of the acute toxicity was carried out after 7 days.

Water solubility = assay type: physicochemical; details: for solubility / Solubility in g per l water at 25° C, white gel / thick syrup: water
Protocol: It is primarily for the purpose of providing water solubility to the steryl monosaccharides that the compounds of this invention, the dicarboxylic acid half ester derivatives and their salts, were prepared.
A solution of succinic anhydride (8.6 g, 0.086 mole) and anhydrous sitosteryl β-D-glucoside (24.7 g, 0.043 mole) in anhydrous pyridine (90 ml) was refluxed for 30 minutes and then left to stand for 20 hrs before it was poured into vigorously stirred conc. hydrochloric acid (104 ml) at ice temperature. The mixture was allowed to stand for 2 hrs before the precipitated hemiester was gravity filtered. The collected solid, washed with iced water until the washings were neutral, was dried in a vacuum oven and a small sample of this was dried to constant weight for a C and H analysis.
The standard preparation of the sterolin dicarboxylic acid hemiester salts illustrated by the preparation of the disodium salt of sitosteryl β-D-glucoside dihemisuccinate. The wet sitosteryl β-D-glucoside dihemisuccinate washed clear of hydrochloric acid as described in Example 1 was transferred quantitatively into a sodium bicarbonate solution (200 ml water; 7.2 g or 0.086 mole NaHCO3). This mixture cooled to 0° C. was slowly poured with vigorous stirring into ice cold acetone (2000 ml) and the white precipitate of the salt was allowed to settle over 18 hrs in an ice chest before it was filtered under suction. The moist salt was thoroughly stirred into ice cold acetone (200 ml), the slurry suction filtered and the filter cake washed with cold ether before the product was dried in a vacuum oven at 40° C. for 48 hrs followed by 2×1 minute heating in a microoven.

[3] = test system: rat paw-oedema / inflammation (Brewer's Yeast); assay: Anti-inflammatory effect, Brewer's Yeast rat paw oedema, oral administration; assay type: in vivo, male Sprague-Dawley rats
Protocol: Twenty male Sprague-Dawley rats, (original supplier: Blue Spruce; Altamont U.S.A.) weighing 240-260 g, were acclimatized for at least 10 days to the test environment.
as §2
as §1, with “side. The results obtained from the treated groups were compared to the relevant control groups which received a similar volume of the aqueous Tylose®-solution only and the difference was expressed as a percentage increase or decrease over the control value.” for “side.”

[4] = in vivo, ip
[5] = Oral toxicity studies in primates (acute and prolonged daily dosing); assay type: in vivo
Protocol: (§3) Preferred daily doses of the compounds of this invention depend on the purpose for which they are used, administered or applied and also whether they are given by oral or parenteral routes or applied topically. […] They may be toxic when administered in large amounts and therefore the oral route is preferred. […] If taken for prophylactic purposes by healthy individuals a daily dose of 0.01-0.1 mg is adequate, although this may be raised to 0.2-1 mg for elderly people. Depending on the severity of a degenerative disease daily doses of 0.3-44 mg may be used for initial treatment until on improvement of the particular condition, a maintenance dose of 0.03-0.6 mg per day is advisable. Lower daily doses are required when these compounds are administered parenterally (e.g. via an intravenous drip). It should be noted that with respect to animals a preferred dose is difficult to predict since it is known that marked differences exist between species and even various breeds or strains of animals in their ability to utilise or react to steroidal glycosides (44-46).

[6] = Oral toxicity studies in rats (acute and prolonged daily dosing); assay type: in vivo
Protocol: as §3

Molecule: CCC(CCC(C)C1CCC2C3CC=C4CC(OC5OC(COC(=O)CCC(=O)O)C(OC(=O)CCC(=O)O)C(OC(=O)CCC(=O)O)C5OC(=O)CCC(=O)O)CCC4(C)C3CCC12C)C(C)C (stereo not drawn) [S.G. tetrahemisuccinate]
- Reduction of the inflammatory response in the rat-paw oedema trials in % ([1]; (50) mg/kg body weight, TABLE 2, time not given): -46.3%
- Acute toxicity after a single dose (% at dose) ([2]; 100 mg/kg): 20%
- Acute toxicity after a single dose (% at dose) ([2]; 200 mg/kg): 100%

Molecule: CC[C@H](CC[C@@H](C)[C@H]1CC[C@H]2[C@@H]3CC=C4C[C@@H](O[C@@H]5O[C@H](CO)[C@@H](O)[C@H](O)[C@H]5O)CC[C@]4(C)[C@H]3CC[C@]12C)C(C)C [S.G., sitosteryl β-D-glucoside, reference compound]
- solubility (Water solubility): 0.009 mg/mL (≈ 15.6 µM)

Molecule: CC[C@H](CC[C@@H](C)[C@H]1CC[C@H]2[C@@H]3CC=C4C[C@@H](O[C@@H]5O[C@H](CO)[C@@H](O[C@H]6O[C@H](CO)[C@@H](O)[C@H](O)[C@H]6O)[C@H](O)[C@H]5O)CC[C@]4(C)[C@H]3CC[C@]12C)C(C)C [S.M., sitosteryl β-D-maltoside, reference compound]
- solubility (Water solubility): 0.38 mg/mL (≈ 514 µM)

Molecule: disodium salt of sitosteryl β-D-glucoside dihemisuccinate [S.G. dihemisuccinate Na2 salt]
- Average percentage reduction of rat paw-oedema / inflammation ([3]; 500 mg/kg given 24,0 and 1,0 hour before challenge, after 5 hours): 8,5%
- Average percentage reduction of rat paw-oedema / inflammation ([3]; 500 mg/kg given 24,0 and 1,0 hour before challenge, after 24 hours): 10,7%
- Average percentage reduction of rat paw-oedema / inflammation ([3]; 1000 mg/kg given 24,0 and 1,0 hour before challenge, after 5 hours): 14,5%
- Average percentage reduction of rat paw-oedema / inflammation ([3]; 1000 mg/kg given 24,0 and 1,0 hour before challenge, after 24 hours): 18,5%
- Adverse effects and tissue toxicity [4]: fewer adverse effects coupled with a lower tissue toxicity
- Average percentage reduction of rat paw-oedema / inflammation ([1]; single dose 25 mg/kg 1 hour before challenge, after 5 hours): 27%
- Average percentage reduction of rat paw-oedema / inflammation ([1]; single dose 25 mg/kg 1 hour before challenge, after 24 hours): 14%
- Average percentage reduction of rat paw-oedema / inflammation ([1]; single dose 50 mg/kg 1 hour before challenge, after 5 hours): 47%
- Average percentage reduction of rat paw-oedema / inflammation ([1]; single dose 50 mg/kg 1 hour before challenge, after 24 hours): 35%
- Solubility in g per l water at 25° C, white gel / thick syrup (Water solubility): 5×10^2 g per l
- solubility (Water solubility): 2000 mg/mL

Molecule: sitosteryl β-D-glucoside dihemisuccinate [S.G. dihemisuccinate]
- Tolerance of prolonged daily doses ([5]; in vivo): well tolerated
- Acute toxicity studies, toxic effects ([5]; primates, oral, even in excess of 1000-2000 mg/kg): no toxic effects
- Tolerance of prolonged daily doses ([6]; rat, in vivo): well tolerated
- Acute toxicity studies, toxic effects ([6]; rats, oral, even in excess of 1000-2000 mg/kg): no toxic effects
- Acute toxicity after a single dose (% at dose) ([2]; 100 mg/kg): 25%
- Solubility (state or result in words) (Water solubility): colloidal
- Solubility in g per l water at 25° C, white gel / thick syrup (Water solubility): 5×10^2 g per l
- solubility (Water solubility): 1,25×10^3 g/l
